Source: US11814375B2, “Heterocyclic compounds” (Hoffmann-La Roche Inc., priority 2019, dated 2023)

Target: T1, MAGL (Homo sapiens, UniProt Q99685)
T1 sequence (Q99685 1-303): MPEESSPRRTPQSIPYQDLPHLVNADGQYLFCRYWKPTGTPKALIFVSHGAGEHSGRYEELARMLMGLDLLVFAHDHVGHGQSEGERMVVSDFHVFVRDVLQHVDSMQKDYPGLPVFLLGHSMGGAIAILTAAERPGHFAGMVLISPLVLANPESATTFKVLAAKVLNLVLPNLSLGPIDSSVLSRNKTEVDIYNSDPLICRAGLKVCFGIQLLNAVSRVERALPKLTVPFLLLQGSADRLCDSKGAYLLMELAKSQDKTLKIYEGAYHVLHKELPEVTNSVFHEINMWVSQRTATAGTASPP
Assay: 2-AG assay: MAGL inhibitory activity by hydrolysis of 2-arachidonoylglycerol to arachidonic acid, followed by mass spectrometry
Format: biochemical
Conditions: 8 μM 2-arachidonoylglycerol, 15 min preincubation and 30 min reaction at RT, arachidonic acid/d8-arachidonic acid ratio by MS
Description: Compounds of formula (I) were profiled for MAGL inhibitory activity by determining the enzymatic activity by following the hydrolysis of the natural substrate 2-arachidonoylglycerol (2-AG) resulting in arachidonic acid, which can be followed by mass spectrometry. This assay is hereinafter abbreviated “2-AG assay”.
The 2-AG assay was carried out in 384 well assay plates (PP, Greiner Cat #784201) in a total volume of 20 μL. Compound dilutions were made in 100% DMSO (VWR Chemicals 23500.297) in a polypropylene plate in 3-fold dilution steps to give a final concentration range in the assay from 12.5 μM to […]. 0.25 μL compound dilutions (100% DMSO) were added to 9 μL MAGL in assay buffer (50 mM TRIS (GIBCO, 15567-027), 1 mM EDTA (Fluka, 03690-100 mL), 0.01% (v/v) Tween. After shaking, the plate was incubated for 15 min at RT. To start the reaction, 10 μL 2-arachidonoylglycerol in assay buffer was added. The final concentrations in the assay was […] and 8 μM 2-arachidonoylglyerol. After shaking and 30 min incubation at RT, the reaction was quenched by the addition of 40 μL of ACN containing 4 μM of d8-arachidonic acid. The amount of arachidonic acid was traced by an online SPE system (Agilent Rapidfire) coupled to a triple quadrupole mass spectrometer (Agilent 6460). A C18 SPE cartridge (G9205A) was used in an ACN/water liquid setup. The mass spectrometer was operated in negative electrospray mode following the mass transitions 303.1→259.1 for arachidonic acid and 311.1→267.0 for d8-arachidonic acid. The activity of the compounds was calculated based on the ratio of intensities [arachidonic acid/d8-arachidonic acid].

SMILES | IC50
Cn1cc(-c2ccc(C3CN(C(=O)N4CC[C@@H]5OCC(=O)N[C@@H]5C4)C3)cc2)cn1 [Example 45, (4aR,8aS)-6-[3-[4-(1-Methylpyrazol-4-yl)phenyl]azetidine-1-carbonyl]-4,4a,5,7,8,8a-hexahydropyrido[4,3-b][1,4]oxazin-3-one] | 134 nM
O=C1CO[C@H]2CCN(C(=O)N3CC(c4ccc(Oc5cncc(Cl)c5)cc4)C3)C[C@H]2N1 [Example 9, (+)-(4aR,8aS)-6-[3-[4-[(5-Chloro-3-pyridyl)oxy]phenyl]azetidine-1-carbonyl]-4,4a,5,7,8,8a-hexahydropyrido[4,3-b][1,4]oxazin-3-one] | 0.9 nM
O=C1CO[C@H]2CCN(C(=O)N3CC(c4ccc(Oc5ccc(Cl)cc5)cc4)C3)C[C@H]2N1 [Example 19, (+)-(4aR,8aS)-6-[3-[4-(4-Chlorophenoxy)phenyl]azetidine-1-carbonyl]-4,4a,5,7,8,8a-hexahydropyrido[4,3-b][1,4]oxazin-3-one] | 0.01 nM
O=C1CO[C@H]2CCN(C(=O)N3CC(c4ccc(Oc5ccncc5F)cc4)C3)C[C@H]2N1 [Example 28, (+)-(4aR,8aS)-6-[3-[4-[(3-Fluoro-4-pyridyl)oxy]phenyl]azetidine-1-carbonyl]-4,4a,5,7,8,8a-hexahydropyrido[4,3-b][1,4]oxazin-3-one] | 6.3 nM
CC(C)(C)Cn1ccc(-c2ccc(C3CN(C(=O)N4CC[C@@H]5OCC(=O)N[C@@H]5C4)C3)cc2)n1 [Example 32b, (4aR,8aS)-6-[3-[4-[1-(2,2-Dimethylpropyl)pyrazol-3-yl]phenyl]azetidine-1-carbonyl]-4,4a,5,7,8,8a-hexahydropyrido[4,3-b][1,4]oxazin-3-one] | 6.5 nM
O=C1CO[C@H]2CCN(C(=O)N3CC(c4ccc(Oc5ccc(Cl)cc5)nc4)C3)C[C@H]2N1 [Example 50, (4aR,8aS)-6-(3-(6-(4-Chlorophenoxy)pyridin-3-yl)azetidine-1-carbonyl)hexahydro-2H-pyrido[4,3-b][1,4]oxazin-3(4H)-one] | 4.3 nM
O=C1CO[C@H]2CCN(C(=O)N3CC(c4ccc(Oc5ccc(F)cc5F)cc4)C3)C[C@H]2N1 [Example 17, (+)-(4aR,8aS)-6-[3-[4-(2,4-Difluorophenoxy)phenyl]azetidine-1-carbonyl]-4,4a,5,7,8,8a-hexahydropyrido[4,3-b][1,4]oxazin-3-one] | 0.1 nM
O=C1CO[C@H]2CCN(C(=O)N3CCN(c4ccc(Oc5ccccc5)cc4)CC3)C[C@H]2N1 [Example 58, (4aR,8aS)-6-[4-(4-Phenoxyphenyl)piperazine-1-carbonyl]-4,4a,5,7,8,8a-hexahydropyrido[4,3-b][1,4]oxazin-3-one] | 1100 nM
O=C1CO[C@H]2CCN(C(=O)N3CCC(c4ccc(Oc5ccccc5)cc4)CC3)C[C@H]2N1 [Example 57, (4aR,8aS)-6-[4-(4-Phenoxyphenyl)piperidine-1-carbonyl]-4,4a,5,7,8,8a-hexahydropyrido[4,3-b][1,4]oxazin-3-one] | 17.8 nM
O=C1CO[C@H]2CCN(C(=O)N3CC(c4ccc(Oc5ccccc5Cl)nc4)C3)C[C@H]2N1 [Example 52, (4aR,8aS)-6-(3-(6-(2-Chlorophenoxy)pyridin-3-yl)azetidine-1-carbonyl)hexahydro-2H-pyrido[4,3-b][1,4]oxazin-3(4H)-one] | 1.3 nM
O=C1CO[C@H]2CCN(C(=O)N3CC(c4ccc(Oc5cncc(F)c5)cc4)C3)C[C@H]2N1 [Example 8, (+)-(4aR,8aS)-6-[3-[4-[(5-Fluoro-3-pyridyl)oxy]phenyl]azetidine-1-carbonyl]-4,4a,5,7,8,8a-hexahydropyrido[4,3-b][1,4]oxazin-3-one] | 4.3 nM
Cc1ccnc(Oc2ccc(C3CN(C(=O)N4CC[C@@H]5OCC(=O)N[C@@H]5C4)C3)cc2)n1 [Example 5, (+)-(4aR,8aS)-6-[3-[4-(4-Methylpyrimidin-2-yl)oxyphenyl]azetidine-1-carbonyl]-4,4a,5,7,8,8a-hexahydropyrido[4,3-b][1,4]oxazin-3-one] | 23.8 nM
Cc1csc(-c2ccc(C3CN(C(=O)N4CC[C@@H]5OCC(=O)N[C@@H]5C4)C3)cc2)n1 [Example 41, (4aR,8aS)-6-[3-[4-(4-Methyl-1,3-thiazol-2-yl)phenyl]azetidine-1-carbonyl]-4,4a,5,7,8,8a-hexahydropyrido[4,3-b][1,4]oxazin-3-one] | 24.6 nM
O=C1CO[C@H]2CCN(C(=O)N3CC(c4ccc(-c5cnn(CCF)c5)cc4)C3)C[C@H]2N1 [Example 40, (4aR,8aS)-6-[3-[4-[1-(2-Fluoroethyl)pyrazol-4-yl]phenyl]azetidine-1-carbonyl]-4,4a,5,7,8,8a-hexahydropyrido[4,3-b][1,4]oxazin-3-one] | 73.1 nM
O=C1CO[C@H]2CCN(C(=O)N3CC(c4ccc(Oc5cccc(F)c5)cc4)C3)C[C@H]2N1 [Example 15, (+)-(4aR,8aS)-6-[3-[4-(3-Fluorophenoxy)phenyl]azetidine-1-carbonyl]-4,4a,5,7,8,8a-hexahydropyrido[4,3-b][1,4]oxazin-3-one] | 0.11 nM

More lines, in order of falling IC50, values ahead:

IC50 | SMILES
133 nM | O=C1CO[C@H]2CCN(C(=O)N3CC(c4ccc(Oc5cccnn5)cc4)C3)C[C@H]2N1 [Example 6, (+)-(4aR,8aS)-6-[3-(4-Pyridazin-3-yloxyphenyl)azetidine-1-carbonyl]-4,4a,5,7,8,8a-hexahydropyrido[4,3-b][1,4]oxazin-3-one]
17.5 nM | Cn1nccc1-c1ccc(C2CN(C(=O)N3CC[C@@H]4OCC(=O)N[C@@H]4C3)C2)cc1 [Example 46, (4aR,8aS)-6-[3-[4-(2-Methylpyrazol-3-yl)phenyl]azetidine-1-carbonyl]-4,4a,5,7,8,8a-hexahydropyrido[4,3-b][1,4]oxazin-3-one]
12.7 nM | COc1ccnc(Oc2ccc(C3CN(C(=O)N4CC[C@@H]5OCC(=O)N[C@@H]5C4)C3)cc2)n1 [Example 13, (+)-(4aR,8aS)-6-[3-[4-(4-Methoxypyrimidin-2-yl)oxyphenyl]azetidine-1-carbonyl]-4,4a,5,7,8,8a-hexahydropyrido[4,3-b][1,4]oxazin-3-one]
0.9 nM | CC(C)(C)Cn1nncc1-c1ccc(C2CN(C(=O)N3CC[C@@H]4OCC(=O)N[C@@H]4C3)C2)cc1 [Example 36, (4aR, 8aS)-6-[3-[4-[3-(2,2-Dimethylpropyl)triazol-4-yl]phenyl]azetidine-1-carbonyl]-4,4a,5,7,8,8a-hexahydropyrido[4,3-b][1,4]oxazin-3-one]
0.7 nM | Cc1ccc(C)c(Oc2ccc(C3CN(C(=O)N4CC[C@@H]5OCC(=O)N[C@@H]5C4)C3)cc2)n1 [Example 30, (4aR,8aS)-6-[3-[4-[(3,6-Dimethyl-2-pyridyl)oxy]phenyl]azetidine-1-carbonyl]-4,4a,5,7,8,8a-hexahydropyrido[4,3-b][1,4]oxazin-3-one]
0.06 nM | O=C1CO[C@H]2CCN(C(=O)N3CC(c4ccc(Oc5cccc(Cl)c5)cc4)C3)C[C@H]2N1 [Example 20, (+)-(4aR,8aS)-6-[3-[4-(3-Chlorophenoxy)phenyl]azetidine-1-carbonyl]-4,4a,5,7,8,8a-hexahydropyrido[4,3-b][1,4]oxazin-3-one]
